From US7897834B2, “Mutation in the rat adenomatous polyposis coli gene within the human mutation hotspot region” (Wisconsin Alumni Research Foundation, priority 2005, dated 2011)

How the values were obtained:
[1] = test system: intestinal tumors in F344 Pirc rats; assay: Effect of celecoxib on intestinal tumor multiplicity in F344 Pirc rats (screening for carcinogenesis inhibitory activity); type: in vivo, rat; settings: for Average number of tumors in large intestine / Average number of tumors in small intestine / Average total number of tumors: celecoxib 1200 ppm diet from about 40 days of age, necropsy at about 22 weeks, n=9
Protocol: Shown in Table 5 is an example of the use of a Pirc rat for screening a compound for carcinogenesis inhibitory activity. The effect of celecoxib on intestinal tumor multiplicity in F344 Pirc rats was tested. At about 40 days of age, Pirc rats backcrossed with F344-Tac and F334 control rats were fed celecoxib at 1200 ppm diet. The rats were killed at about 22 weeks of age (about 150-160 days of age). Necropsy was performed to identify 1-2 mm tumors in the intestines.

[2] = test system: intestinal tumors in F344-Pirc rats; assay: Tumor multiplicities in F344-Pirc rats after somatic ENU treatment; type: in vivo, rat; settings: ENU treated, male, age 7 mo
Protocol: Somatic ENU treatment. ENU was dissolved in 95% EtOH and measured with a spectrophotometer at […] to obtain a final concentration of 1 mg/ml. Either the ENU solution or 95% EtOH was injected intraperitoneally into 13-20 day old rats at 18 or 40 mg/kg of body mass. Treated animals were isolated in a laminar flow hood for at least three days before being returned to normal housing.
Tumor multiplicities were determined for both adenomas and microadenomas (neoplasms less than 0.5 mm in diameter). A significant dependence on gender was observed, with males developing more of both types of tumor in all regions of the intestinal tract. There was also a monotonic increase in tumor multiplicity with age, reaching an average of 14 colonic adenomas in males and 9 in females over eight months of age (Tables 3 and 4).
Shown in Table 3 are the tumor multiplicities in Pirc rats. Colonic microadenoma multiplicities could not be accurately measured without histopathological confirmation and were excluded from these analyses. Neoplasms less than 0.5 mm in size were classified as microadenomas.

[3] = Female Pirc rat, celecoxib 1200 ppm diet vs control diet
[4] = Male Pirc rat, celecoxib 1200 ppm diet vs control diet
[5] = N=3, ENU intraperitoneally at 18 or 40 mg/kg in 13-20 day old rats

For `Cc1ccc(-c2cc(C(F)(F)F)nn2-c2ccc(S(N)(=O)=O)cc2)cc1` [Celecoxib, celecoxib], the “Average number of tumors in large intestine” value ([1]; Female Pirc rat) was 0.1, the “Average number of tumors in small intestine” value ([1]; Female Pirc rat) was 0.9 and the “Average total number of tumors” value ([1]; Female Pirc rat) was 1.0. The “Relative reduction in number of tumors (large intestine)” value [1, 3] was 93%, the “Relative reduction in number of tumors (total)” value [1, 3] was 50% and the “Average number of tumors in large intestine” value ([1]; Male Pirc rat) was 1.2. For the same compound, the “Average number of tumors in small intestine” value ([1]; Male Pirc rat) was 1.3, the “Average total number of tumors” value ([1]; Male Pirc rat) was 2.6 and the “Relative reduction in number of tumors (large intestine)” value [1, 4] was 61%. The “Relative reduction in number of tumors (small intestine)” value [1, 4] was 82% and the “Relative reduction in number of tumors (total)” value [1, 4] was 76%.
`CCN(N=O)C(N)=O` [ENU, N-ethyl-N-nitrosourea] was tested, and the “Colonic polyps, mean ± SD” value [2, 5] was 79 ± 11, the “Lesions in small intestine, mean ± SD: Adenomas” value [2, 5] was 57 ± 13 and the “Lesions in small intestine, mean ± SD: Microadenomas” value ([2]; N=3, neoplasms less than 0.5 mm) was 665 ± 103.
